Molecules are shown by their SMILES.

Data set [1] concerns HL-60 myeloid leukemia cell line. The settings on record: in P123 Pluronic micelles; for cell growth inhibition compared with vehicle: HL-60, up to 0.24 μM, 3 days.
Procedure: The in vitro anti-leukemic activity of both chelates using the HL-60 myeloid leukemia cell line was compared. […] The DETC/metal chelates were initially dissolved in dimethylsulfoxide (DMSO). This 2 mM DETC/metal stock in DMSO was then mixed with a polymer stock and micellization was allowed to occur at room temperature. The final polymer concentration was 2% by weight. […] DETC/metal chelates were added at concentrations of up to 0.24 μM. Cell growth was assessed after 3 days using the MTS assay.
Data set [2] has as its system HL-60 cells. The settings on record: HL-60, 0.32 μM, 24 hours, average and SEM of 3 experiments; controls 7±1%.
Procedure: HL-60 cells were treated with DETC/Cu^2+ at a concentration of 0.32 μM for 24 hours upon which the number of apoptotic cells was determined using propidium iodide (PI) staining and flow cytometry. Analysis for the presence of apoptotic cells was modeled using the ModFit software.
Data set [3] deals with prostate cancer cell line PPC-1. The following applies: read-out: 50% growth inhibitory concentration (IC50); PPC-1, two days, in P123 micelles.
Procedure: (§1) The effect of DETC/Cu^2+ chelates on the growth of 3 solid tumor cell lines in vitro was studied. The cell lines studied were the colon cancer cell line DLD-1, the prostate cancer cell line PPC-1 and the hepatoma cell line Hep-3B. […] Cells in logarithmic growth phase were cultured in RPMI1640/10% FBS media at a concentration of 120,000 cells/mL. DETC/Cu^2+ was added to the cells at concentrations ranging from 0 to 1 μM. […] Two days after drug addition, cell growth was assayed using the CellTiter 96 assay from Promega (Madison, Wis.) using the manufacturer's protocol.
Data set [4] relates to colon cancer cell line DLD-1. The following applies: read-out: 50% growth inhibitory concentration (IC50); DLD-1, two days, in P123 micelles.
Procedure: as §1
The subject of data set [5] is hepatoma cell line Hep-3B. The settings on record: read-out: 50% growth inhibitory concentration (IC50), two days, in P123 micelles.
Procedure: as §1
Data set [6] has as its system HL-60 cells. The data set is described as follows: Leukemia cell growth in vivo, HL-60 flank tumors in mice. The arrangement: species or system NOD/SCID IL2Rγ^null mice. The source says:
In another preliminary experiment, the effect of DETC/metal chelates on leukemia cell growth in vivo was studied. NOD/SCID IL2Rγ^null mice were implanted bilaterally in the flanks with 19×10^6 HL-60 cells. […] The experiment was terminated on day 15. At that point 3 out of 4 control animals had died and the one remaining alive had tumor volumes that had exceeded 10% of initial body weight. None of the animals treated with DETC/Cu died.

With `CCN(CC)C(=S)[S-].[Ag+]` [DETC/Ag^+, silver salt of diethyldithiocarbamate], the “cell growth inhibition compared with vehicle” value in data set [1] was “growth inhibition to a much greater extent”.
Regarding `CCN(CC)C(=S)[S-].CCN(CC)C(=S)[S-].[Cu+2]` [DETC/Cu^2+, copper salt of diethyldithiocarbamate], the “relative potency of growth inhibition” value in data set [1] (HL-60, 3 days) was “more potent than the DETC/Ag^+ chelate”. Also, the “cell growth inhibition compared with vehicle” value in data set [1] was “growth inhibition to a much greater extent”. The apoptotic cells in data set [2] came to 16±2%. Besides, the IC50 in data set [3] was found to be 180 nM; in data set [4], 370 nM; in data set [5], 130 nM. For the same compound, the toxicity result in data set [6] (2 μmol/kg intravenously every other day, in P123 micelles) was “No obvious toxicity”. In addition, the “tumor volume, tumor growth” value in data set [6] (after 12 days of therapy, 2 μmol/kg i.v. every other day, versus P123 micelle controls) was “delay in tumor growth”. The animals that died entry in data set [6] (day 15, 4 mice per group, 3 out of 4 controls died) is recorded as “None”.
